Data on one substance can be found in US20190358264A1, “METHODS OF TREATING DISEASES ASSOCIATED WITH ILC2 CELLS” (Limm Therapeutics, SA, priority 2016, published 2019).

This assay deals with ILC2s. As to the kind of experiment: In vitro activation of purified ILC2s, type 2 cytokine protein by intracellular staining. In kind it is cell-based, mouse. The procedure: FIGS. 10a-10d: FIG. 10a, Ki67 expression in intestinal ILC2s after an overnight in vitro stimulation with NmU23 alone (100 ng/mL, Phoenix Pharmaceutical) or NmU23 together with the survival cytokines Interleukin (IL)-2 and/or IL-7 (10 ng/mL). FIG. 10b, Ki67 expression in intestine ILC2 after in vivo administration of NmU23 (4 g/day during 2 days). n=5. FIG. 10c, ILC2-derived type 2 cytokines (IL-5, IL-13 and Amphiregulin (Areg)) in sorted intestine ILC2 after an overnight stimulation with NmU23, mouse recombinant IL-25 or IL-33 (R&D) (10, 50 and 100 ng/mL). Negative control: unstimulated ILC2, Positive control: ILC2 activated with phorbol 12-myristate 13-acetate (PMA, 50 ng/ml) plus ionomycin (500 ng/ml). n=3. FIG. 10d, Dot plots representative of the cytokine production with increasing dose of NmU23, rIL-25 and rIL-33. *P<0.05; **P<0.01; ***P<0.001; ****P<0.0001; ns not significant.
For in vitro experiments, purified lung and small intestine lamina propria ILC2s were FBS starved for 2 hours prior to stimulation and cultured in complete RPMI (supplemented with 10% foetal bovine serum (FBS), 1% hepes, sodium pyruvate, glutamine, streptomycin and penicillin) at 37° C. For mRNA analysis, ILC2s were stimulated overnight with recombinant mouse Neuromedin U 23 peptide (NmU23, 100 ng/mL; Phoenix pharmaceuticals). Both NmU23-stimulated and control ILC2s were cultured in the presence of IL-2 and IL-7 (10 ng/mL; Peprotech). ILC2s were lysed using RLT buffer (Qiagen). For cytokine protein analysis, ILC2s were incubated exclusively with brefeldin A (eBioscience) for 12 hours prior to intracellular staining. For in vivo experiments, B6 mice were injected intraperitoneal with NmU23 peptide (2 g/day) during Nippostrongylus brasiliensis infection or with a single dose of NmU23 (20 μg) and analyzed after 8 hours. Control mice were treated with PBS alone.
Intracellular staining was performed using IC fixation/permeabilization kit (eBioscience). Flow cytometry analysis and cell sorting were performed using BD LSRFORTESSA and BD FACSAria flow cytometers (BD Biosciences). […]

For the substance “Neuromedin U (FKAEYQSPSVGQSKGYFLFRPRN) [NmU]”, for the setting “PMA 50 ng/ml plus ionomycin 500 ng/ml, sorted intestine ILC2, overnight”, the “up-regulation of innate type 2 cytokines relative to PMA-ionomycin positive control” value is reported as “comparable to the effects observed with PMA-ionomycin activation”. The “expression of innate IL-5 and IL-13 compared to IL-33 and IL-25” value (sorted intestine ILC2, overnight, 10, 50 and 100 ng/mL (FIGS. 10c,10d)) is “prompt, and very robust expression”.
